Measured values published in PMC4132815, “Structure and Function of the Bacterial Heterodimeric ABC Transporter CydDC” (The Journal of Biological Chemistry, 2014).

What was measured:
CydDC (C-His6-CydDC) [1] = biological target: T1, CydDC (C-His6-CydDC) (Escherichia coli, UniProt P23886+P29018, P29018:INS2NS); assay: stimulation of ATPase activity (colorimetric Pi release); format: biochemical; details: peak 2 in 0.02% DDM; 5 mM compound; 2 mM ATP, 10 mM MgCl2, pH 7.5, 37 °C; activator
T1 construct: gene cydD; full-length heterodimer (64 + 63 kDa); plasmid pHX100 in E. coli BL21

CydDC (C-His6-CydDC) [2] = biological target: T1, CydDC (C-His6-CydDC); assay: as above; format: biochemical

Compound | % of basal ATPase activity at 5 mM (CydDC (C-His6-CydDC) [1]) | EC50 (CydDC (C-His6-CydDC) [2])
N[C@@H](Cc1cnc[nH]1)C(=O)O [L-histidine] | Significant changes in ATPase activity were invoked only with thiols and L-histidine | –
N[C@@H](CS)C(=O)O [cysteine] | – | 26 ± 3 µM
